Measurements from paper PMC11949107, “Polyunsaturated fatty acids and their endocannabinoid-related metabolites activity at human TRPV1 and TRPA1 ion channels expressed in HEK-293 cells” (PeerJ, 2025).
Values joined by “and” are separate entries in the source; they are usually repeats but may differ in a detail not shown here. Equal entries are not always repeated.

Legend:
human TRPV1 [1] = molecular target: T1, human TRPV1 (Homo sapiens, UniProt Q8NER1); test: Pre-incubation with PUFAs or capsazepine, then capsaicin (10 nM) response in HEK-293 TRPV1 cells; assay type: cell-based
T1 construct: Life Technologies (cells); host or cells: Flp-In T-REx HEK-293
T1 sequence (Q8NER1 whole entry): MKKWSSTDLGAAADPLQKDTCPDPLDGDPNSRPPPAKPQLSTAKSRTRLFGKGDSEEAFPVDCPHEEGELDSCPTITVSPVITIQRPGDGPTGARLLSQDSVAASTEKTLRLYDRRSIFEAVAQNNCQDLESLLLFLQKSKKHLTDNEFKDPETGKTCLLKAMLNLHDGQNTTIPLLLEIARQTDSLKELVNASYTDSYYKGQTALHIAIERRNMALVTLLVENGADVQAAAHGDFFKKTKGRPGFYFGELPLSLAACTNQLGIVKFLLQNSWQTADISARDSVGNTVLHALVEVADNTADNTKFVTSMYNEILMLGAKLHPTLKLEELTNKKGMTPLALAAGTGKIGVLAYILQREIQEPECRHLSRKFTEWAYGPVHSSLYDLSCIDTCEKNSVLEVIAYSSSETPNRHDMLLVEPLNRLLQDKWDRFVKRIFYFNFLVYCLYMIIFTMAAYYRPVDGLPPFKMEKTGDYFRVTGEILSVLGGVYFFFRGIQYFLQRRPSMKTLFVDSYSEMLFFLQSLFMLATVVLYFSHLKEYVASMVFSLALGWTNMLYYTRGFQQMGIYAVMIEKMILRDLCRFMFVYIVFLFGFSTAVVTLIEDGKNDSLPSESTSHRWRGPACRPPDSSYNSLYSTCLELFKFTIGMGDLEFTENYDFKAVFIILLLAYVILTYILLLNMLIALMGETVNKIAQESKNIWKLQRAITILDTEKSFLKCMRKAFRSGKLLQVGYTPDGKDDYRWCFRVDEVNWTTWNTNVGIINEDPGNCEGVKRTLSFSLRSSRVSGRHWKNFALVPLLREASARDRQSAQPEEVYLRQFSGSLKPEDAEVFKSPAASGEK
Procedure: Intracellular calcium [Ca]i levels were assessed using the calcium 5 kit from Molecular Devices (# R8186, Sunnyvale, CA, USA) on a FlexStation 3 Microplate Reader (Molecular Devices, Sunnyvale, CA, USA). […] Probenecid (cat # 50027; Biotium) which helps to prevent expulsion of calcium indicator from the cells was added to a final concentration of 1.25 mM. 90 µL of the dye were loaded into each well of the plate and incubated for 1 h before reading in the FlexStation 3 at 37 °C. Fluorescence was recorded every 2 s (λ excitation = 485 nm, λ emission = 525 nm) for 5 min. After 1 min of baseline recording, 20 µL of the drug, dissolved in HBSS with 1% dimethyl sulfoxide (DMSO) (cat # D2650; Sigma-Aldrich, Melbourne, Australia) was added (final DMSO concentration was 0.1% in well). […]

HEK-293 EV cells = test: Calcium 5 dye [Ca]i assay in HEK-293 empty vector (EV) cells; assay type: cell-based, human; settings: 10 µM; HEK-293 EV cells; percentage of predrug baseline
Procedure, shortened: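 Tetracycline at 1 µg ml^−1 was added 4 h before testing; cells were loaded with Calcium 5 dye for 1 h and read at 37 °C, with drug added after 1 min baseline (final 0.1% DMSO). The response was the % change from the 60 s baseline after solvent subtraction, and EC50/Emax came from a three-parameter logistic fit, reported as pEC50.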

human TRPV1 [2] = molecular target: T1, human TRPV1; test: Calcium 5 dye [Ca]i assay in HEK-293 Flp-In T-REx cells expressing TRPV1 (agonist response); assay type: cell-based; settings: for Change in Ca5 fluorescence, individual experiments (CRC raw data): TRPV1 cells
Procedure, shortened: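 Tetracycline-induced (1 µg ml^−1, 4 h) HEK-293 T-REx cells loaded with Calcium 5 dye plus 1.25 mM probenecid for 1 h; agonist added after 1 min baseline (0.1% DMSO final), fluorescence (485/525 nm) read every 2 s for 5 min at 37 °C. Response as % change from baseline, solvent-subtracted; EC50/Emax from three-parameter logistic fit, given as pEC50.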

human TRPV1 [3] = molecular target: T1, human TRPV1; test: PMA (phorbol ester) potentiation of TRPV1 responses in HEK-293 TRPV1 cells; assay type: cell-based; settings: for [Ca]i response (change in fluorescence), individual replicates: sheet Figure 5(C)
Procedure: Intracellular calcium [Ca]i levels were assessed using the calcium 5 kit from Molecular Devices (# R8186, Sunnyvale, CA, USA) on a FlexStation 3 Microplate Reader (Molecular Devices, Sunnyvale, CA, USA). […] Probenecid (cat # 50027; Biotium) which helps to prevent expulsion of calcium indicator from the cells was added to a final concentration of 1.25 mM. 90 µL of the dye were loaded into each well of the plate and incubated for 1 h before reading in the FlexStation 3 at 37 °C. Fluorescence was recorded every 2 s (λ excitation = 485 nm, λ emission = 525 nm) for 5 min. After 1 min of baseline recording, 20 µL of the drug, dissolved in HBSS with 1% dimethyl sulfoxide (DMSO) (cat # D2650; Sigma-Aldrich, Melbourne, Australia) was added (final DMSO concentration was 0.1% in well).
We initially determined the effect of PMA, another phorbol ester that is a protein kinase C activator ([Jiang & Fleet, 2012]) on HEK-293 TRPV1 expressing cells.
(A) Response of HEK-293 TRPV1 expressing cells for PMA at various concentration. […] Drugs were added for the duration of the bar; (D) The effects of PUFAs after potentiation of TRPV1 by PMA. […] Changes in [Ca]i are expressed as percentage of the pre-drug baseline, with the response to PMA alone at 5 min subtracted. The black circles represent the response of PUFAs without PMA pretreatment while the pink circles represent the response of PUFAs after PMA potentiation.

## Oc1cc2c(cc1O)CN(C(=S)NCCc1ccc(Cl)cc1)CCC2 [capsazepine, reference compound]
Human TRPV1 [1]; 10 µM, 5 min exposure, then capsaicin 10 nM
  Effect of pre-treatment on the capsaicin response: prevented
Human TRPV1 [1]; capsaicin 10 nM after 5 min drug 10 µM, TRPV1 cells, listed as CAPZ
  Post-capsaicin: response to subsequent capsaicin addition, individual experiments: 10.3375 and -4.09 and 24.8571 and 12.9593 and -2.666 and 6.069
Human TRPV1 [1]; drug 10 µM for 5 min, TRPV1 cells, listed as CAPZ
  Pre-capsaicin: response to first drug, individual experiments: 25.3514 and 3.867 and 12.8382 and 10.4656 and 4.742 and 37.2822

## COc1cc(CNC(=O)CCCC/C=C/C(C)C)ccc1O [Capsaicin]
HEK-293 EV cells
  Change of Ca5 fluorescence, Mean ± SEM, EV (10 µM): 12 ± 2%
Human TRPV1 [2]; 10 µM
  Elevation of [Ca]i in HEK-293 TRPV1 cells compared with HEK-293 EV cells: significantly greater
Human TRPV1 [2]; 10 µM, HEK-293 TRPV1 cells, percentage of predrug baseline
  Change of Ca5 fluorescence, Mean ± SEM, TRPV1 (10 µM): 350 ± 33 %
Human TRPV1 [2]; HEK293, read-out: Emax ± SEM % TRPV1 (30 µM)
  Emax at 30 µM: 340 ± 19%
Human TRPV1 [2]; highest concentration of capsaicin (10 µM)
  TRPV1 response, Mean± SEM (N): 337 ± 56 (21)
Human TRPV1 [2]; log concentration -5 (M)
  Change in Ca5 fluorescence, individual experiments (CRC raw data): 470.33 and 172.951 and 473.364 and 509.446 and 171.926 and 427.551 and 233.547 and 218.906 and 339.94 and 178.11 and 253.39 and 197.967 and 463.085 and 202.235 and 472.577 and 462.537 and 153.101 and 535.708 and 529.643 and 524.333
Human TRPV1 [2]; log concentration -6 (M)
  Change in Ca5 fluorescence, individual experiments (CRC raw data): 464.868 and 165.225 and 461.65 and 520.53 and 312.706 and 3.214 and 3.201 and 3.988 and 340.169 and 187.118 and 486.026 and 246.165 and 485.213
Human TRPV1 [2]; log concentration -7 (M)
  Change in Ca5 fluorescence, individual experiments (CRC raw data): 449.588 and 119.691 and 406.342 and 2.432 and 332.379 and 480.521 and 322.808 and 86.6522 and 310.081 and 147.599 and 431.922 and 467.245
Human TRPV1 [2]; log concentration -7.52288 (M)
  Change in Ca5 fluorescence, individual experiments (CRC raw data): 356.845 and 111.895 and 323.852 and 3.161 and 274.896 and 259.762 and 73.7365 and 34.2854 and 273.106 and 132.986 and 393.207 and 420.023 and 372.386
Human TRPV1 [2]; log concentration -8 (M)
  Change in Ca5 fluorescence, individual experiments (CRC raw data): 5.385 and 96.7773 and 164.958 and 3.572 and 5.951 and 47.2327 and 7.175 and 1.822 and 309.776 and 125.652 and 333.972 and 270.42 and 149.94
Human TRPV1 [2]; log concentration -8.52288 (M)
  Change in Ca5 fluorescence, individual experiments (CRC raw data): 11.2452 and 61.0751 and 5.8468 and 39.7141 and 6.931 and 3.397 and 5.378 and 0.9947 and 335.917 and 103.111 and 65.1245 and 4.361 and 1.4546
Human TRPV1 [2]; log concentration -9 (M)
  Change in Ca5 fluorescence, individual experiments (CRC raw data): 6.236 and 19.5627 and 8.465 and 57.6325 and 2.89 and 1.796 and 10.3317 and 2.025 and 308.34 and 50.3171 and 51.1654 and 4.4283 and 2.369 and 122.651 and 6.769 and 5.267
Human TRPV1 [2]; maximal effective concentration, HEK-293 TRPV1 cells, dye saturation control
  Change in Ca5 fluorescence: 435 ± 15%
Human TRPV1 [3]; Capsaicin alone, concentration -5 (log)
  [Ca]i response (change in fluorescence), individual replicates: 595.541 and 626.277 and 602.254 and 594.454 and 590.074 and 541.046 and 516.667
Human TRPV1 [3]; Capsaicin alone, concentration -6 (log)
  [Ca]i response (change in fluorescence), individual replicates: 552.521 and 565.654 and 354.62 and 545.98 and 564.249 and 584.634 and 580.153
Human TRPV1 [3]; Capsaicin alone, concentration -7.52288 (log)
  [Ca]i response (change in fluorescence), individual replicates: 532.091 and 453.931 and 457.847 and 272.568
Human TRPV1 [3]; Capsaicin alone, concentration -8 (log)
  [Ca]i response (change in fluorescence), individual replicates: 105.919 and 177.189 and 79.3195 and 30.3097 and 60.6584 and 319.686 and 144.106
Human TRPV1 [3]; Capsaicin alone, concentration -8.52288 (log)
  [Ca]i response (change in fluorescence), individual replicates: 2.139 and 1.734 and 6.239 and 49.459 and 10.1781 and -5.201 and 2.9246 and 2.502 and 16.6604 and 25.7998 and 147.975 and 180.247
Human TRPV1 [3]; Capsaicin alone, concentration -9 (log)
  [Ca]i response (change in fluorescence), individual replicates: 2.491 and -0.4612 and 4.215 and 6.618 and 6.288 and 4.839 and 3.5734 and 0.9298 and 2.514 and -2.854 and 3.184 and 5.152
Human TRPV1 [3]; Capsaicin alone, concentration -10 (log)
  [Ca]i response (change in fluorescence), individual replicates: -1.109 and 5.021 and -0.4125 and -2.624 and 0.2107
Human TRPV1 [3]; Capsaicin post-PMA, concentration -5 (log)
  [Ca]i response (change in fluorescence), individual replicates: 496.984 and 417.588
Human TRPV1 [3]; Capsaicin post-PMA, concentration -6 (log)
  [Ca]i response (change in fluorescence), individual replicates: 544.156 and 380.208 and 494.359 and 527.721 and 402.607 and 284.086
Human TRPV1 [3]; Capsaicin post-PMA, concentration -7.52288 (log)
  [Ca]i response (change in fluorescence), individual replicates: 396.653 and 394.172 and 495.495 and 292.964
Human TRPV1 [3]; Capsaicin post-PMA, concentration -8 (log)
  [Ca]i response (change in fluorescence), individual replicates: 292.695 and 167.258 and 234.279 and 203.284 and 320.763 and 311.597 and 228.909
Human TRPV1 [3]; Capsaicin post-PMA, concentration -8.52288 (log)
  [Ca]i response (change in fluorescence), individual replicates: 137.626 and 123.803 and 108.674 and 62.3148 and 135.616 and 311.329 and 67.1431 and 138.197 and 73.5753 and 51.0772
Human TRPV1 [3]; Capsaicin post-PMA, concentration -9 (log)
  [Ca]i response (change in fluorescence), individual replicates: 41.3533 and 39.7921 and 40.9396 and 31.7003 and 53.9609 and 52.809 and 35.9713 and 49.984 and 39.816 and 29.7359 and 17.3567
Human TRPV1 [3]; Capsaicin post-PMA, concentration -10 (log)
  [Ca]i response (change in fluorescence), individual replicates: 44.473 and 19.9944 and 42.7227 and 36.7683 and 31.3318 and 10.3982
Human TRPV1 [3]; HBSS after capsaicin 10 nM
  HBSS post Capsaicin, individual experiments: 14.4552 and 24.0374 and 16.1823
Human TRPV1 [3]; PMA 100 nM, 5 min pretreatment
  TRPV1 response after exposure to PMA: amplified
Human TRPV1 [3]; capsaicin 10 nM after PMA 100 nM for 5 min, response to PMA alone subtracted
  Drugs post-PMA, individual experiments: 292.695 and 167.258 and 234.279 and 203.284 and 320.763
Human TRPV1 [3]; capsaicin 10 nM alone
  Capsaicin response without PMA, individual experiments: 226.255 and 133.384 and 132.765
Human TRPV1 [3]; capsaicin 10 nM without PMA pretreatment
  Drugs alone, individual experiments: 79.3195 and 30.3097 and 60.6584
